According to patent publication US12077503B2, “Substituted cyclic amides and their use as herbicides” (FMC CORPORATION, priority 2015, dated 2024):

What was measured:
Format in all cases: in vivo
rice (Oryra sativa) = assay: Test B flooded paddy test; details: Flood, 250 g ai/ha; 0 to 100 scale where 0 is no effect and 100 is complete control; 13 to 15 d
Method in brief: (§1)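 Percent control, visually estimated after 13–15 d in the greenhouse on a 0–100 basis, compares treated pots with untreated ones; compound was put into paddy water 3 cm above the soil when plants had two leaves.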

[1] = test system: ducksalad (Heteranthera limosa); assay: Test B flooded paddy test; details: Flood, 250 g ai/ha; 0 to 100 scale where 0 is no effect and 100 is complete control; 13 to 15 d
Method in brief: as §1

[2] = test system: barnyardgrass (Echinochloa crus-galli); assay: Test B flooded paddy test; details: Flood, 250 g ai/ha; 0 to 100 scale where 0 is no effect and 100 is complete control; 13 to 15 d
Method in brief: as §1

[3] = test system: sedge, umbrella (small-flower umbrella sedge, Cyperus difformis); assay: Test B flooded paddy test; details: Flood, 250 g ai/ha; 0 to 100 scale where 0 is no effect and 100 is complete control; 13 to 15 d
Method in brief: as §1

[4] = test system: Galium (catchweed bedstraw, Galium aparine); assay: Test A postemergence; details: postemergence; for Galium plant response rating: 125 g ai/ha, visual injury rating on 0 to 100 scale (0 no effect, 100 complete control), approx. 10 d; for Plant response rating, Galium: 500 g ai/ha, 0 to 100 scale, 0 no effect, 100 complete control
Method in brief: (§2)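 Visual injury, scored on a 0–100 scale relative to untreated controls, was recorded about 10 d after application. Treatments were a preemergence soil spray over planted seeds or a postemergence spray on plants at the one- to two-leaf stage, 2 to 10 cm tall, all in loam soil–sand blend in the greenhouse.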

[5] = test system: giant foxtail (Setaria faberii); assay: Test A postemergence; details: postemergence; for Foxtail, Giant plant response rating: 125 g ai/ha, visual injury rating on 0 to 100 scale (0 no effect, 100 complete control), approx. 10 d; for Plant response rating, Foxtail, Giant: 500 g ai/ha, 0 to 100 scale, 0 no effect, 100 complete control
Method in brief: as §2

[6] = test system: blackgrass (Alopecurus myosuroides); assay: Test A postemergence; details: postemergence; for Blackgrass plant response rating: 125 g ai/ha, visual injury rating on 0 to 100 scale (0 no effect, 100 complete control), approx. 10 d; for Plant response rating, Blackgrass: 500 g ai/ha, 0 to 100 scale, 0 no effect, 100 complete control
Method in brief: as §2

[7] = test system: ragweed (common ragweed, Ambrosia elatior); assay: Test A postemergence; details: postemergence; for Ragweed plant response rating: 125 g ai/ha, visual injury rating on 0 to 100 scale (0 no effect, 100 complete control), approx. 10 d; for Plant response rating, Ragweed: 500 g ai/ha, 0 to 100 scale, 0 no effect, 100 complete control
Method in brief: as §2

[8] = test system: wheat (Triticum aestivum); assay: Test A postemergence; details: postemergence; for Wheat plant response rating: 125 g ai/ha, visual injury rating on 0 to 100 scale (0 no effect, 100 complete control), approx. 10 d; for Plant response rating, Wheat: 500 g ai/ha, 0 to 100 scale, 0 no effect, 100 complete control
Method in brief: as §2

[9] = test system: ryegrass, Italian (Italian ryegrass, Lolium multiflorum); assay: Test A postemergence; details: postemergence; for Ryegrass, Italian plant response rating: 125 g ai/ha, visual injury rating on 0 to 100 scale (0 no effect, 100 complete control), approx. 10 d; for Plant response rating, Ryegrass, Italian: 500 g ai/ha, 0 to 100 scale, 0 no effect, 100 complete control
Method in brief: as §2

[10] = test system: pigweed (Amaranthus retroflexus); assay: Test A postemergence; details: postemergence; for Pigweed plant response rating: 125 g ai/ha, visual injury rating on 0 to 100 scale (0 no effect, 100 complete control), approx. 10 d; for Plant response rating, Pigweed: 500 g ai/ha, 0 to 100 scale, 0 no effect, 100 complete control
Method in brief: as §2

Kochia (Kochia scoparia) [11] = assay: Test A postemergence; details: postemergence; for Kochia plant response rating: 125 g ai/ha, visual injury rating on 0 to 100 scale (0 no effect, 100 complete control), approx. 10 d; for Plant response rating, Kochia: 500 g ai/ha, 0 to 100 scale, 0 no effect, 100 complete control
Method in brief: as §2

[12] = test system: barnyardgrass (Echinochloa crus-galli); assay: Test A postemergence; details: postemergence; for Barnyardgrass plant response rating: 125 g ai/ha, visual injury rating on 0 to 100 scale (0 no effect, 100 complete control), approx. 10 d; for Plant response rating, Barnyardgrass: 500 g ai/ha, 0 to 100 scale, 0 no effect, 100 complete control
Method in brief: as §2

corn (Zea mays) = assay: Test A postemergence; details: postemergence; for Corn plant response rating: 125 g ai/ha, visual injury rating on 0 to 100 scale (0 no effect, 100 complete control), approx. 10 d; for Plant response rating, Corn: 500 g ai/ha, 0 to 100 scale, 0 no effect, 100 complete control
Method in brief: as §2

[13] = test system: giant foxtail (Setaria faberii); assay: Test A preemergence; details: for Plant response rating, Foxtail, Giant: 125 g ai/ha, preemergence, 0 to 100 scale (0 no effect, 100 complete control); for Foxtail, Giant plant response rating (0 to 100 scale, 0 is no effect, 100 is complete control): Preemergence, 500 g ai/ha, visual injury approx. 10 d
Method in brief: as §2

[14] = test system: ragweed (common ragweed, Ambrosia elatior); assay: Test A preemergence; details: for Plant response rating, Ragweed: 125 g ai/ha, preemergence, 0 to 100 scale (0 no effect, 100 complete control); for Ragweed plant response rating (0 to 100 scale, 0 is no effect, 100 is complete control): Preemergence, 500 g ai/ha, visual injury approx. 10 d
Method in brief: as §2

[15] = test system: ryegrass, Italian (Italian ryegrass, Lolium multiflorum); assay: Test A preemergence; details: for Plant response rating, Ryegrass, Italian: 125 g ai/ha, preemergence, 0 to 100 scale (0 no effect, 100 complete control); for Ryegrass, Italian plant response rating (0 to 100 scale, 0 is no effect, 100 is complete control): Preemergence, 500 g ai/ha, visual injury approx. 10 d
Method in brief: as §2

[16] = test system: pigweed (Amaranthus retroflexus); assay: Test A preemergence; details: for Plant response rating, Pigweed: 125 g ai/ha, preemergence, 0 to 100 scale (0 no effect, 100 complete control); for Pigweed plant response rating (0 to 100 scale, 0 is no effect, 100 is complete control): Preemergence, 500 g ai/ha, visual injury approx. 10 d
Kochia (Kochia scoparia) [17] = assay: Test A preemergence; details: for Plant response rating, Kochia: 125 g ai/ha, preemergence, 0 to 100 scale (0 no effect, 100 complete control); for Kochia plant response rating (0 to 100 scale, 0 is no effect, 100 is complete control): Preemergence, 500 g ai/ha, visual injury approx. 10 d
Method in brief: as §2

[18] = test system: barnyardgrass (Echinochloa crus-galli); assay: Test A preemergence; details: for Plant response rating, Barnyardgrass: 125 g ai/ha, preemergence, 0 to 100 scale (0 no effect, 100 complete control); for Barnyardgrass plant response rating (0 to 100 scale, 0 is no effect, 100 is complete control): Preemergence, 500 g ai/ha, visual injury approx. 10 d
Method in brief: as §2

Row | SMILES | Plant response rating, Rice (rice (Oryra sativa)) | Plant response rating, Ducksalad [1] | Plant response rating, Barnyardgrass [2] | Plant response rating, Sedge, Umbrella [3] | Galium plant response rating [4] | Plant response rating, Galium [4] | Foxtail, Giant plant response rating [5] | Plant response rating, Foxtail, Giant [5] | Blackgrass plant response rating [6] | Plant response rating, Blackgrass [6] | Ragweed plant response rating [7] | Plant response rating, Ragweed [7] | Wheat plant response rating [8] | Plant response rating, Wheat [8] | Ryegrass, Italian plant response rating [9] | Plant response rating, Ryegrass, Italian [9] | Pigweed plant response rating [10] | Plant response rating, Pigweed [10] | Kochia plant response rating (Kochia (Kochia scoparia) [11]) | Plant response rating, Kochia (Kochia (Kochia scoparia) [11]) | further results
1 | CN1CC(c2ccc3c(c2)OC(F)(F)O3)C(C(=O)Nc2ccccc2S(C)(=O)=O)C1=O (stereo not drawn) [Compound 443] | 0 | 80 | 70 | 0 | 40 | 50 | 80 | 80 | 60 | 70 | 20 | 20 | 40 | 60 | 30 | 60 | 20 | 50 | 20 | 30 | Barnyardgrass plant response rating [12]: 80; Plant response rating, Barnyardgrass [12]: 80; Corn plant response rating (corn (Zea mays)): 40; Plant response rating, Corn (corn (Zea mays)): 80; Plant response rating, Foxtail, Giant [13]: 90; Foxtail, Giant plant response rating (0 to 100 scale, 0 is no effect, 100 is complete control) [13]: 90; Plant response rating, Ragweed [14]: 80; Ragweed plant response rating (0 to 100 scale, 0 is no effect, 100 is complete control) [14]: 80; Plant response rating, Ryegrass, Italian [15]: 40; Ryegrass, Italian plant response rating (0 to 100 scale, 0 is no effect, 100 is complete control) [15]: 50; Plant response rating, Pigweed [16]: 80; Pigweed plant response rating (0 to 100 scale, 0 is no effect, 100 is complete control) [16]: 90; Plant response rating, Kochia (Kochia (Kochia scoparia) [17]): 30; Kochia plant response rating (0 to 100 scale, 0 is no effect, 100 is complete control) (Kochia (Kochia scoparia) [17]): 80; Plant response rating, Barnyardgrass [18]: 90; Barnyardgrass plant response rating (0 to 100 scale, 0 is no effect, 100 is complete control) [18]: 90
2 | O=C1NCC(c2ccc(Br)cc2)C1C(=O)Nc1ccccc1F (stereo not drawn) [Compound 448] | 0 | 95 | 40 | 0 | 30 | 50 | 60 | 80 | 0 | 30 | 0 | 0 | 0 | 0 | 0 | 20 | 20 | 40 | 30 | 50 | Barnyardgrass plant response rating [12]: 80; Plant response rating, Barnyardgrass [12]: 90; Corn plant response rating (corn (Zea mays)): 0; Plant response rating, Corn (corn (Zea mays)): 0; Plant response rating, Foxtail, Giant [13]: 90; Foxtail, Giant plant response rating (0 to 100 scale, 0 is no effect, 100 is complete control) [13]: 90; Plant response rating, Ragweed [14]: 0; Ragweed plant response rating (0 to 100 scale, 0 is no effect, 100 is complete control) [14]: 20; Plant response rating, Ryegrass, Italian [15]: 0; Ryegrass, Italian plant response rating (0 to 100 scale, 0 is no effect, 100 is complete control) [15]: 20; Plant response rating, Pigweed [16]: 20; Pigweed plant response rating (0 to 100 scale, 0 is no effect, 100 is complete control) [16]: 40; Plant response rating, Kochia (Kochia (Kochia scoparia) [17]): 20; Kochia plant response rating (0 to 100 scale, 0 is no effect, 100 is complete control) (Kochia (Kochia scoparia) [17]): 50; Plant response rating, Barnyardgrass [18]: 90; Barnyardgrass plant response rating (0 to 100 scale, 0 is no effect, 100 is complete control) [18]: 90
